Experimental data from ChEMBL document CHEMBL1201862, “PubChem BioAssay data set” (2004).
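All cell lines were grown in 96-well plates and treated with compound for 48 hours. GI50 = concentration required for 50% inhibition of growth.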 Active and inactive are the calls of the source. No stated cut-off is given here; in the data, active = GI50 up to about 1.1 µM and inactive = higher.

Experiments:
Assay in all cases: NCI tumour cell line growth inhibition, 48 h
RXF 393 = system: RXF 393
SF-539 = system: SF-539
EKVX = system: EKVX
HCC 2998 = system: HCC 2998
M14 = system: M14
COLO 205 = system: COLO 205
K562 = system: K562
HCT-15 = system: HCT-15
SK-MEL-28 = system: SK-MEL-28
CAKI-1 = system: CAKI-1
OVCAR-5 = system: OVCAR-5
SW-620 = system: SW-620
HL-60 = system: HL-60
HOP-92 = system: HOP-92
SR = system: SR
NCI-H226 = system: NCI-H226

SMILES | GI50 (RXF 393) | GI50 (SF-539) | GI50 (EKVX) | GI50 (HCC 2998) | GI50 (M14) | GI50 (COLO 205) | GI50 (K562) | GI50 (HCT-15) | GI50 (SK-MEL-28) | GI50 (CAKI-1) | GI50 (OVCAR-5) | GI50 (SW-620) | GI50 (HL-60) | GI50 (HOP-92) | GI50 (SR) | GI50 (NCI-H226)
Cc1nn(-c2ccccc2)c2nc(N3CCOCC3)nnc12 | > 100 µM (inactive) | 24.4 µM (inactive) | > 100 µM (inactive) | > 100 µM (inactive) | 97.1 µM (inactive) | > 100 µM (inactive) | > 100 µM (inactive) | 65 µM | > 100 µM (inactive) | 39.6 µM (inactive) | > 100 µM (inactive) | > 100 µM (inactive) |  |  |  | 
O=C1NC(=O)C(=Cc2c3ccccc3cc3ccccc23)C(=O)N1 | > 100 µM (inactive) | > 100 µM (inactive) |  |  | > 100 µM (inactive) | > 100 µM (inactive) | 71.3 µM (inactive) | > 100 µM | > 100 µM (inactive) | 47.2 µM (inactive) |  | > 100 µM (inactive) | 44.7 µM (inactive) | > 100 µM (inactive) |  | 
Nc1nc(=O)c(/N=N/c2ccccc2)c(N)[nH]1 |  | 26.4 µM (inactive) |  | 38.4 µM (inactive) | 28 µM (inactive) | 65 µM (inactive) | 11 µM (inactive) | 30.5 µM | 24.8 µM (inactive) | 66.7 µM (inactive) | 41.3 µM (inactive) | 78.2 µM (inactive) | 28.1 µM (inactive) | 22.5 µM (inactive) | > 100 µM (inactive) | 76 µM (inactive)
N#Cc1ccccc1NC(=O)c1ccccc1 | > 100 µM (inactive) | > 100 µM (inactive) | > 100 µM (inactive) |  |  | > 100 µM (inactive) | > 100 µM (inactive) | > 100 µM | > 100 µM (inactive) | > 100 µM (inactive) | > 100 µM (inactive) | > 100 µM (inactive) |  | > 100 µM (inactive) | > 100 µM (inactive) | 
CN1CC(C(=O)C2C(=O)c3ccccc3C2=O)C(=O)C(=O)C(C(=O)C2C(=O)c3ccccc3C2=O)C1 (configuration not stated) |  | > 100 µM (inactive) |  | > 100 µM (inactive) | > 10 µM (inactive) | > 100 µM (inactive) | > 100 µM (inactive) | > 100 µM | > 100 µM (inactive) | > 100 µM (inactive) | > 100 µM (inactive) | > 100 µM (inactive) | > 100 µM (inactive) | 85.1 µM (inactive) | > 100 µM (inactive) | 
COc1ccccc1NC(=O)C1=C(C)NC(C)=C(C(=O)Nc2ccccc2OC)C1c1ccc([N+](=O)[O-])cc1 | 60.4 µM (inactive) | > 100 µM (inactive) | 82.6 µM (inactive) |  | 85.7 µM (inactive) | 56.2 µM (inactive) | 49.3 µM (inactive) | > 100 µM | 27 µM (inactive) | 21.7 µM (inactive) | 22.4 µM (inactive) | 93.1 µM (inactive) | 39.2 µM (inactive) |  | 67.5 µM (inactive) | > 100 µM (inactive)
COC(=O)[C@@H]1CSC(=S)N1C(=O)C[C@H]1CC=CC[C@H]1CC(=O)Sc1ccccc1 | 14.2 µM (inactive) | 17.8 µM (inactive) | 17.4 µM (inactive) | 17.9 µM (inactive) | 16.7 µM (inactive) | 19.5 µM (inactive) | 12.1 µM (inactive) | 16.2 µM | 16.4 µM (inactive) | > 10 µM (inactive) | 19.1 µM (inactive) | 17.4 µM (inactive) | 3.47 µM (inactive) |  | 8.99 µM (inactive) | 23.7 µM (inactive)
N#Cc1nc(Nc2ccc(Cl)cc2)sc1N |  | 2.78 µM (inactive) | 24.2 µM (inactive) | 6.87 µM (inactive) | 23.6 µM (inactive) | 6.68 µM (inactive) | 3.91 µM (inactive) | 7.18 µM | 20.5 µM (inactive) | 7.57 µM (inactive) | 12.1 µM (inactive) | 6.1 µM (inactive) | 4.92 µM (inactive) | 20.9 µM (inactive) | 1.51 µM (inactive) | 19.8 µM (inactive)
C[N+](C)(C)CC1CCC/C1=N/O (configuration not stated) | 37.1 µM (inactive) | > 100 µM (inactive) | > 100 µM (inactive) | > 100 µM (inactive) | > 100 µM (inactive) | 21.5 µM (inactive) | 23.7 µM (inactive) | 20 µM | > 100 µM (inactive) |  | > 100 µM (inactive) | 2.62 µM (inactive) | 20.1 µM (inactive) | > 100 µM (inactive) | 27.7 µM (inactive) | > 100 µM (inactive)
CC(=O)OCC(OC(C)=O)C(OC(C)=O)C(OC(C)=O)C(=O)CNn1c(-c2ccc(C)cc2)nc2ccccc2c1=O (configuration not stated) | > 100 µM (inactive) | > 100 µM (inactive) | > 100 µM (inactive) |  | > 100 µM (inactive) | > 100 µM (inactive) | > 100 µM (inactive) | > 100 µM | > 100 µM (inactive) | 90.2 µM (inactive) | > 100 µM (inactive) | > 100 µM (inactive) | 50 µM (inactive) |  | 41.2 µM (inactive) | 
C=CCc1cc(OC)c(O)c(C(=O)/C=C/c2ccc(OC)c(OC)c2)c1 |  | 19.1 µM (inactive) | 20.2 µM (inactive) | 21.8 µM (inactive) | 17 µM (inactive) | 15.3 µM (inactive) | 10.7 µM (inactive) |  | 16.9 µM (inactive) | 22.1 µM (inactive) | 20.1 µM (inactive) | 24.4 µM (inactive) | 11.6 µM (inactive) |  |  | 
CCCCCCCCCCCCCCCC(=O)NC1CCc2cc(O)c(O)c(O)c2-c2ccc(SC)c(=O)cc21 (configuration not stated) | 1.46 µM (inactive) | 2.07 µM (inactive) | 19 µM (inactive) | 4.01 µM (inactive) | 8.02 µM (inactive) | 5.21 µM (inactive) | 1.89 µM (inactive) | 6.03 µM | 6.67 µM (inactive) | 13 µM (inactive) | 12.9 µM (inactive) | 4.84 µM (inactive) | 3.35 µM (inactive) | 2.51 µM (inactive) | 2.79 µM (inactive) | 10.6 µM (inactive)
O=C(O/N=C1/CCCC/C1=C\c1ccccc1)c1ccccc1 | > 100 µM (inactive) | > 100 µM (inactive) | > 100 µM (inactive) | > 100 µM (inactive) | > 100 µM (inactive) | > 100 µM (inactive) | 20.8 µM (inactive) | 84.3 µM | > 100 µM (inactive) |  | > 100 µM (inactive) | > 100 µM (inactive) | 20.2 µM (inactive) | 63.5 µM (inactive) | 43.5 µM (inactive) | > 100 µM (inactive)
O=C1NC(=O)C(C(=O)C(=O)Nc2cccc(C(F)(F)F)c2)C(=O)N1 | > 100 µM (inactive) | > 100 µM (inactive) | > 100 µM (inactive) | > 100 µM (inactive) | > 100 µM (inactive) | > 100 µM (inactive) | > 100 µM (inactive) | > 100 µM | > 100 µM (inactive) | > 100 µM (inactive) | > 100 µM (inactive) | > 100 µM (inactive) | > 100 µM (inactive) |  |  | 
CCCNC(=O)C(C)(Cl)C(=O)c1ccccc1O (configuration not stated) | > 100 µM (inactive) | > 100 µM (inactive) |  | > 100 µM (inactive) | > 100 µM (inactive) | > 100 µM (inactive) | > 100 µM (inactive) | > 100 µM | > 100 µM (inactive) | > 100 µM (inactive) |  | > 100 µM (inactive) | > 100 µM (inactive) |  | > 100 µM (inactive) | > 100 µM (inactive)
CCOC(=O)C1C(c2ccc(Br)cc2)N(Cc2ccccc2)C(c2ccc(Br)cc2)C(C(=O)OC)S1(=O)=O (configuration not stated) | 33.6 µM (inactive) |  | > 100 µM (inactive) | > 100 µM (inactive) | 83.4 µM (inactive) | > 100 µM (inactive) | 87.7 µM (inactive) | > 100 µM | 53.3 µM (inactive) | 77.1 µM (inactive) | > 100 µM (inactive) | > 100 µM (inactive) | > 100 µM (inactive) |  | 34.4 µM (inactive) | 46.8 µM (inactive)
CCOC(=O)c1s/c(=N\Nc2nc3ccccc3cc2C2OCCO2)n(Cc2ccccc2)c1C | > 100 µM (inactive) | > 100 µM (inactive) | > 100 µM (inactive) |  | > 100 µM (inactive) | > 100 µM (inactive) | > 100 µM (inactive) | > 100 µM | > 100 µM (inactive) | > 100 µM (inactive) | > 100 µM (inactive) | > 100 µM (inactive) | > 100 µM (inactive) | > 100 µM (inactive) | 4.65 µM (inactive) | > 100 µM (inactive)
C/C(=N\NS(=O)(=O)c1ccccc1)c1ccc[n+]([O-])n1 |  | > 100 µM (inactive) | > 100 µM (inactive) | > 100 µM (inactive) | 30.1 µM (inactive) |  | 21 µM (inactive) | > 100 µM | 62.5 µM (inactive) | 34.1 µM (inactive) | > 100 µM (inactive) | 34.8 µM (inactive) | 21.8 µM (inactive) | 39 µM (inactive) | 32.3 µM (inactive) | 
Nc1nc(SCCC/C=C/B(O)O)nc2c1ncn2C1OC(COP(=O)(O)O)C(O)C1O (configuration not stated) |  | > 203 µM (inactive) |  |  | > 203 µM (inactive) | > 203 µM (inactive) | > 203 µM (inactive) | > 203 µM | > 203 µM (inactive) | > 203 µM (inactive) | > 203 µM (inactive) | > 203 µM (inactive) | > 203 µM (inactive) | > 203 µM (inactive) | > 203 µM (inactive) | > 203 µM (inactive)
O=C1CC2CCN(C(=O)c3ccccc3)CC2CCN1.O=C1CCC2CC(C(=O)c3ccccc3)CCC2CN1 (configuration not stated) | > 100 µM (inactive) | > 100 µM (inactive) | > 100 µM (inactive) | > 100 µM (inactive) | > 100 µM (inactive) | > 100 µM (inactive) | > 100 µM (inactive) | > 100 µM | > 100 µM (inactive) | > 100 µM (inactive) | > 100 µM (inactive) | > 100 µM (inactive) | > 100 µM (inactive) |  | > 100 µM (inactive) | > 100 µM (inactive)
